Reference: ChEMBL document CHEMBL1201862, “PubChem BioAssay data set” (2004)
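The compound was tested at five concentrations on cells cultured in 96-well plates, with a 48-hour exposure period. GI50: concentration for 50% inhibition of growth.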 Activity calls are given as the source filed them. Cut-off read from the data, not from the text of the source: active = GI50 up to about 1.1 µM and inactive = higher.

Assays:
Assay in all cases: DTP human tumour cell line panel, 48 h
MCF7 = system: MCF7
OVCAR-4 = system: OVCAR-4
SF-539 = system: SF-539
SF-295 = system: SF-295
Hs-578T = system: Hs-578T
HOP-92 = system: HOP-92
RXF 393 = system: RXF 393
ACHN = system: ACHN
LOX IMVI = system: LOX IMVI
T47D = system: T47D
SNB-19 = system: SNB-19
BT-549 = system: BT-549
UACC-257 = system: UACC-257
NCI-H226 = system: NCI-H226
SK-MEL-28 = system: SK-MEL-28
A549 = system: A549
UO-31 = system: UO-31
M14 = system: M14
OVCAR-8 = system: OVCAR-8
NCI/ADR-RES = system: NCI/ADR-RES

Measured: GI50

Cc1nc2ccccc2c(=O)n1NC(=O)c1ccc([N+](=O)[O-])cc1
inactive: MCF7 > 100 µM | OVCAR-4 > 100 µM | SF-539 > 100 µM | SF-295 > 100 µM | Hs-578T > 100 µM | HOP-92 > 100 µM | RXF 393 > 100 µM | ACHN > 100 µM | LOX IMVI > 100 µM | T47D > 100 µM | SNB-19 > 100 µM | BT-549 > 100 µM | UACC-257 > 100 µM | NCI-H226 > 100 µM | SK-MEL-28 > 100 µM | A549 > 100 µM | UO-31 > 100 µM | M14 > 100 µM | OVCAR-8 > 100 µM

O=C(O)CCC(=O)c1ccc2sc3ccccc3c2c1
inactive: MCF7 > 100 µM | OVCAR-4 > 100 µM | SF-539 > 100 µM | SF-295 > 100 µM | Hs-578T > 100 µM | RXF 393 > 100 µM | ACHN > 100 µM | LOX IMVI > 100 µM | T47D > 100 µM | SNB-19 > 100 µM | BT-549 > 100 µM | UACC-257 > 100 µM | NCI/ADR-RES > 100 µM | NCI-H226 > 100 µM | SK-MEL-28 > 100 µM | A549 > 100 µM | UO-31 > 100 µM | M14 > 100 µM | OVCAR-8 > 100 µM

CN(C)S(=O)(=O)c1nc(Cl)c2nc[nH]c2n1
inactive: MCF7 > 100 µM | OVCAR-4 > 100 µM | SF-295 > 100 µM | Hs-578T > 100 µM | RXF 393 55.7 µM | ACHN > 100 µM | LOX IMVI > 100 µM | T47D > 100 µM | SNB-19 > 100 µM | BT-549 > 100 µM | UACC-257 > 100 µM | NCI/ADR-RES > 100 µM | NCI-H226 > 100 µM | SK-MEL-28 > 100 µM | A549 > 100 µM | UO-31 > 100 µM | M14 > 100 µM | OVCAR-8 > 100 µM

CCOP(=O)(OCC)Oc1c(OC)c2[nH]c(C(=O)OC)cc2c2c(C(=O)O)c[nH]c12
inactive: MCF7 > 100 µM | OVCAR-4 > 100 µM | SF-539 > 100 µM | SF-295 > 100 µM | Hs-578T > 100 µM | HOP-92 > 100 µM | RXF 393 > 100 µM | ACHN > 100 µM | LOX IMVI > 100 µM | T47D > 100 µM | SNB-19 > 100 µM | BT-549 > 100 µM | UACC-257 > 100 µM | NCI/ADR-RES > 100 µM | SK-MEL-28 > 100 µM | A549 > 100 µM | UO-31 > 100 µM | M14 > 100 µM | OVCAR-8 > 100 µM

CC1(C)Oc2ccc(Cl)cc2C12CC2
inactive: MCF7 16.9 µM | OVCAR-4 13.8 µM | SF-539 31.5 µM | SF-295 14 µM | Hs-578T 24.4 µM | RXF 393 15.6 µM | ACHN 16.3 µM | LOX IMVI 16.6 µM | T47D 22.6 µM | SNB-19 16.5 µM | BT-549 21.1 µM | UACC-257 15.1 µM | NCI/ADR-RES 18.4 µM | NCI-H226 13.6 µM | SK-MEL-28 17.9 µM | A549 18.9 µM | UO-31 16.9 µM | M14 18.8 µM | OVCAR-8 14.7 µM

CC(C)C1=CC(=O)C(C)(C2C(O)CC3(C)C4CC=C5C(CCC(OC6OC(CO)C(O)C(O)C6OC6OC(C)C(O)C(O)C6O)C5(C)C)C4(C)C(=O)CC23C)O1 (stereo unspecified)
inactive: MCF7 > 100 µM | OVCAR-4 > 100 µM | SF-539 > 100 µM | SF-295 > 100 µM | Hs-578T > 100 µM | HOP-92 > 100 µM | RXF 393 > 100 µM | ACHN > 100 µM | T47D > 100 µM | SNB-19 > 100 µM | BT-549 > 100 µM | UACC-257 > 100 µM | NCI/ADR-RES > 100 µM | NCI-H226 > 100 µM | SK-MEL-28 > 100 µM | A549 > 100 µM | UO-31 > 100 µM | M14 > 100 µM | OVCAR-8 > 100 µM

Cc1ccc(/C=c2\c(=O)[nH]c3nc4ccccc4c(=O)n23)cc1
inactive: MCF7 39.8 µM | OVCAR-4 > 100 µM | SF-539 18.8 µM | SF-295 73.1 µM | Hs-578T 31 µM | HOP-92 55.2 µM | RXF 393 29.6 µM | ACHN > 100 µM | LOX IMVI 29.1 µM | T47D 41.9 µM | SNB-19 34.9 µM | BT-549 21.6 µM | UACC-257 70 µM | NCI/ADR-RES 39.4 µM | SK-MEL-28 43.9 µM | A549 94.4 µM | UO-31 57.5 µM | M14 37.5 µM | OVCAR-8 40.9 µM

CCN1C=C/C(=C\C=C\c2cc[n+](CC)c3ccccc23)c2ccccc21
inactive: MCF7 6.28 µM | OVCAR-4 4.46 µM | SF-539 3.39 µM | SF-295 3.58 µM | Hs-578T 4.02 µM | HOP-92 12.4 µM | RXF 393 17.3 µM | ACHN 11.9 µM | T47D 5.93 µM | SNB-19 4.17 µM | BT-549 20.7 µM | UACC-257 3.18 µM | NCI/ADR-RES 64.4 µM | NCI-H226 3.36 µM | SK-MEL-28 8.99 µM | A549 3.77 µM | UO-31 15.2 µM | M14 5.02 µM | OVCAR-8 4.28 µM

COc1ccc(C(c2ccc(OC)cc2)N2C(=O)CCC2C(=O)O)cc1 (stereo unspecified)
inactive: MCF7 > 100 µM | OVCAR-4 > 100 µM | SF-539 > 100 µM | SF-295 > 100 µM | Hs-578T > 100 µM | HOP-92 > 100 µM | ACHN > 100 µM | LOX IMVI > 100 µM | T47D > 100 µM | SNB-19 > 100 µM | BT-549 > 100 µM | UACC-257 > 100 µM | NCI/ADR-RES > 100 µM | NCI-H226 > 100 µM | SK-MEL-28 > 100 µM | A549 > 100 µM | UO-31 > 100 µM | M14 > 100 µM | OVCAR-8 > 100 µM

Cc1ccc2[nH]/c(=N/S(=O)(=O)c3cc(C)c(Cl)cc3S)[nH]c2c1
inactive: MCF7 64.1 µM | OVCAR-4 65 µM | SF-539 74.3 µM | SF-295 49.5 µM | Hs-578T 88.3 µM | HOP-92 > 100 µM | RXF 393 > 100 µM | ACHN 41.2 µM | LOX IMVI 25.4 µM | T47D 44.9 µM | SNB-19 36.3 µM | BT-549 > 100 µM | UACC-257 > 100 µM | NCI/ADR-RES > 100 µM | SK-MEL-28 45.7 µM | A549 44.2 µM | UO-31 57 µM | M14 97.7 µM | OVCAR-8 93.1 µM

O=C(c1ccccc1)N1C(=S)N(c2ccc([N+](=O)[O-])cc2)C(=N/c2ccccc2)/C1=N\c1ccccc1
inactive: MCF7 > 100 µM | SF-539 > 100 µM | SF-295 > 100 µM | Hs-578T > 100 µM | HOP-92 > 100 µM | RXF 393 > 100 µM | ACHN 52 µM | T47D > 100 µM | SNB-19 > 100 µM | BT-549 > 100 µM | UACC-257 > 100 µM | NCI/ADR-RES > 100 µM | NCI-H226 > 100 µM | SK-MEL-28 > 100 µM | A549 41.9 µM | UO-31 > 100 µM | M14 > 100 µM | OVCAR-8 65.5 µM

O=C1OC(C(O)CO)C(C(O)CO)OC1=O (stereo unspecified)
inactive: MCF7 > 10 µM | OVCAR-4 > 10 µM | SF-539 > 10 µM | SF-295 > 10 µM | Hs-578T > 10 µM | RXF 393 > 10 µM | ACHN > 10 µM | T47D > 10 µM | SNB-19 > 10 µM | BT-549 > 10 µM | UACC-257 > 10 µM | NCI/ADR-RES > 10 µM | NCI-H226 > 10 µM | SK-MEL-28 > 10 µM | A549 > 10 µM | UO-31 > 10 µM | M14 > 10 µM | OVCAR-8 > 10 µM

COc1cc2c(cc1O)[C@]1(Cc3ccc4c(c3C1=O)OCO4)N(C)CC2
inactive: MCF7 > 100 µM | OVCAR-4 > 100 µM | SF-539 > 100 µM | SF-295 > 100 µM | Hs-578T > 100 µM | HOP-92 > 100 µM | RXF 393 > 100 µM | ACHN > 100 µM | T47D > 100 µM | SNB-19 > 100 µM | BT-549 > 100 µM | UACC-257 > 100 µM | NCI/ADR-RES > 100 µM | NCI-H226 > 100 µM | SK-MEL-28 > 100 µM | A549 > 100 µM | UO-31 > 100 µM | M14 > 100 µM | OVCAR-8 > 100 µM

C1=CC(=[N+]2N=C(c3ccccc3)CC2c2ccccc2)C=CC1=C1SC(c2ccccc2)(c2ccccc2)c2ccccc21.[O-][Cl+3]([O-])([O-])[O-] (stereo unspecified)
inactive: MCF7 > 100 µM | SF-539 > 100 µM | SF-295 61.8 µM | Hs-578T > 100 µM | HOP-92 82 µM | RXF 393 > 100 µM | ACHN > 100 µM | T47D > 100 µM | SNB-19 79.4 µM | BT-549 78.5 µM | NCI/ADR-RES > 100 µM | NCI-H226 > 100 µM | SK-MEL-28 > 100 µM | A549 > 100 µM | UO-31 > 100 µM | M14 60.8 µM | OVCAR-8 > 100 µM

O=[N+]([O-])c1nccn1CC1OC(n2ccnc2[N+](=O)[O-])C(O)C(O)C1O (stereo unspecified)
inactive: MCF7 > 100 µM | Hs-578T > 100 µM | HOP-92 > 100 µM | RXF 393 > 100 µM | ACHN > 100 µM | T47D 23.9 µM | SNB-19 > 100 µM | BT-549 > 100 µM | UACC-257 > 100 µM | NCI-H226 > 100 µM | SK-MEL-28 > 100 µM | A549 > 100 µM | UO-31 > 100 µM | M14 > 100 µM | OVCAR-8 > 100 µM
